# Where two headings read alike, the source gives them in different places.
# What was measured:
# [1] = tested on: occult choroidal neovascular lesions; experiment: Verteporfin PDT of occult CNV lesions versus placebo, best corrected visual acuity at 24 months; type: in vivo, human
# Protocol: Subjects having, suspected of having, or otherwise afflicted with occult neovascular lesions were evaluated for best corrected visual acuity as outlined in Example 1, and their lesion size determined angiographically as outlined in Example 2. […] The greatest linear dimension of the entire CNV lesion was […], corresponding to 9 Disc Areas. Subjects were evaluated for visual acuity and lesion size about 1 week prior to treatment. Subjects were randomly assigned to a treatment group and a placebo group.
# For each subject in the treatment group, a 15 mg-vial of liposomally-formulated verteporfin (Verteporfin for Injection (Visudyne™) was reconstituted with 7 mL of sterile water for injection to provide 7.5 mL containing a final concentration of 2 mg/mL. The volume of reconstituted drug required to achieve a dose of 6 mg/M^2 (based upon the height and weight of the subject, calculated from a nomogram) was withdrawn from the vial and diluted with 5% dextrose for injection to make a total infusion volume of 30 mL. The full infusion volume was administered intravenously over 10 minutes using an appropriate syringe pump and in-line filter. Fifteen minutes after the start of the infusion, light was administered to the lesion from a diode laser through a fiber optic delivered via a slit lamp, and utilizing a suitable lens. A light dose of 50J/cm^2 was applied at a fluency rate of 600 mW/cm^2, 50J/cm^2 (83 second exposure).
# Subjects were evaluated by fluorescein angiography approximately every three months, and their best corrected visual acuity was assessed. Subjects were retreated if evidence of CNV leakage was detected by fluorescein angiography.
# [2] = tested on: CNV lesions classified as predominantly classic or minimally classic; settings: cited from earlier work
# [3] = baseline visual acuity <65 letters, lesion size all, 24 months
# [4] = baseline visual acuity <65 letters, lesion size ≦4DA, 24 months
# [5] = baseline visual acuity <65 letters, lesion size ≧4DA, 24 months
# [6] = baseline visual acuity ≧65 letters, lesion size all, 24 months
# [7] = baseline visual acuity ≧65 letters, lesion size ≦4DA, 24 months
# [8] = baseline visual acuity ≧65 letters, lesion size ≧4DA, 24 months
substance,measurement,setting,value
verteporfin,30 Letter Response Rate (percent of subjects losing less than 30 letters) Difference V-P,[1]; [3],27.5%
same,Mean VA Difference,[1]; [3],11.7
same,15 Letter Response Rate (percent of subjects losing less than 15 letters) Difference V-P,"[1]; baseline visual acuity <65 letters, lesion size all, 24 months after initial treatment, 6 mg/M^2 i.v., 50 J/cm^2",33.8%
same,15 Letter Response Rate (percent of subjects losing less than 15 letters) Difference V-P,[1]; [4],43.8%
same,30 Letter Response Rate (percent of subjects losing less than 30 letters) Difference V-P,[1]; [4],19.4%
same,Mean VA Difference,[1]; [4],12.3
same,15 Letter Response Rate (percent of subjects losing less than 15 letters) Difference V-P,[1]; [5],21.5%
same,30 Letter Response Rate (percent of subjects losing less than 30 letters) Difference V-P,[1]; [5],30.0%
same,Mean VA Difference,[1]; [5],9.4
same,15 Letter Response Rate (percent of subjects losing less than 15 letters) Difference V-P,[1]; [6],−3.9%
same,30 Letter Response Rate (percent of subjects losing less than 30 letters) Difference V-P,[1]; [6],8.5%
same,Mean VA Difference,[1]; [6],1.5
same,15 Letter Response Rate (percent of subjects losing less than 15 letters) Difference V-P,[1]; [7],12.5%
same,30 Letter Response Rate (percent of subjects losing less than 30 letters) Difference V-P,[1]; [7],26.8%
same,Mean VA Difference,[1]; [7],9.3
same,15 Letter Response Rate (percent of subjects losing less than 15 letters) Difference V-P,[1]; [8],−24%
same,30 Letter Response Rate (percent of subjects losing less than 30 letters) Difference V-P,[1]; [8],−5.3%
same,Mean VA Difference,[1]; [8],−3.3
same,response of subjects having occult lesions to PDT,"[1]; study of Example 3, in words",respond to PDT
same,treatment benefit with verteporfin PDT,[2]; lesions classified as minimally classic,did not
same,treatment benefit with verteporfin PDT,[2]; lesions classified as predominantly classic,large treatment benefit
